Key:
[1] = Light emission spectra by Fast Spectral Scanning System (FSSS); format: physicochemical; settings: for emission spectrum peak: figure legends FIGS. 2A-2E, 3A-3J; for Emission Max: in 0.5 ml acetonitrile, Flashing Reagent #1 and #2, maximum could vary by 0-4 nm between determinations; for Range: spectral region with signal intensity of above 5% of peak height
Experimental: The light emission spectra of LBAC's and the reference acridinium esters were determined by a Fast Spectral Scanning System (FSSS) of Photo Research (a division of Kollmorgen Corp) of Burbank, CA, U.S.A. The experiment was carried out in a dark room. Each sample was dissolved in HPLC grade acetonitrile at the concentration of 1 mg/ml or higher and diluted with the same solvent to obtain the sample solution in the concentration specified. A typical determination utilized 10 to 100 ug of each compound, with the exception of the angular benz[a]acridinium ester (2 mg), separately or mixed together in 0.5 ml acetonitrile contained in 13 x 100 mm borosilicate test tube. The tube was placed on a tube rack raised to a proper height. The FSSS optical head was placed in front of the tube at close distance and with its lens focused on the liquid in the tube. The sample solution was first treated with 0.35 ml of the Flashing Reagent #1 (Ciba Corning Diagnostics) containing 0.1 N HNO3 and 0.1% H2O2. […] The light which was generated instantaneously following the addition of the Reagent #2 was recorded by FSSS for 4 seconds except for 2-MeO-LEAE-Imidate which was recorded for 30 seconds starting from split second before the Reagent #2 was added.
Recorded emission spectra are shown in FIGS. 2A-2E, 3A-3J, and 4A-4D. FIGS. 2A-2E and 3A-3J show individual emission spectra of chemiluminescent compounds including an acridinium ring system and compounds including a benzacridinium ring system. […] The major portions of the original constituting spectra which remained unchanged were indeed non-overlapping. These important physical characteristics fulfill the prerequisite for two or more subclasses of chemiluminescent compounds to be utilized in test assays for detecting and/or quantitating at least two substances in a test sample, and particularly to multianalyte clinical diagnostic assays.

[2] = Kinetic study on light emission (time course up to 10 seconds); format: physicochemical; settings: normalized to 10 seconds
Experimental: A time course study over a period of up to 10 seconds was conducted to determine these percentages, by flashing the compounds and normalizing all the signals collected for different lengths of time to that of 10 seconds.

Row | emission spectrum peak [1] | Emission Max [1] | Range [1] | difference of the emission maxima ([1]; versus acridinium esters) | Compound | Percent signal released over different lengths of time ([2]; 0.5 s) | Percent signal released over different lengths of time ([2]; 1.0 s) | Percent signal released over different lengths of time ([2]; 2.0 s) | Percent signal released over different lengths of time ([2]; 4.0 s) | Percent signal released over different lengths of time ([2]; 6.0 s) | Percent signal released over different lengths of time ([2]; 10.0 s)
1 | ≈ 520 nm | 520-524 nm | 490-670 nm | – | Cc1cc(C(=O)OCc2ccccc2)cc(C)c1OC(=O)c1c2ccccc2[n+](C)c2cc3ccccc3cc12 [LEAE-Bz, (4-Benzyloxycarbonyl-2,6-dimethyl)phenyl 5-Methyl-benz[b]acridinium-12-carboxylate Fluorosulfonate] | 27% | 71% | 88% | 97% | 98% | 100%
2 | ≈ 520 nm | 520 nm | 485-670 nm | – | CC(C)c1cc(C(=O)OCc2ccccc2)cc(C(C)C)c1OC(=O)c1c2ccccc2[n+](C)c2cc3ccccc3cc12 [DIP-LEAE-Bz, (4-Benzyloxycarbonyl-2,6-diisopropyl)phenyl 5-Methyl-benz[b]acridinium-12-carboxylate Fluorosulfonate] | 4% | 26% | 47% | 67% | 80% | 100%
3 | ≈ 550 nm | 550 nm | 510-700 nm | – | COc1ccc2c(c1)c(C(=O)Oc1c(C)cc(C(=O)OCc3ccccc3)cc1C)c1cc3ccccc3cc1[n+]2C [2-MeO-LEAE-Bz, (4-Benzyloxycarbonyl-2,6-dimethyl)phenyl 2-Methoxy-5-methyl-benz[b]acridinium-12-carboxylate Fluorosulfonate] | 16% | 42% | 65% | 83% | 92% | 100%
4 | ≈ 550 nm | 550 nm | 510-700 nm | – | Cc1cc(C(=O)ON2C(=O)CCC2=O)cc(C)c1OC(=O)c1c2cc(OCC[N+](C)(C)C)ccc2[n+](C)c2cc3ccccc3cc12 [2-QAE-LEAE-NHS, (2,6-Dimethyl-4-succinimidyloxycarbonyl)phenyl 5-Methyl-2-(trimethylammonium)ethoxy-benz[b]acridinium-12-carboxylate Difluorosulfonate] | 9% | 37% | 59% | 76% | 88% | 100%
5 | ≈ 440 nm | 436-440 nm | 410-530 nm | 8-14 nm | Cc1cc(C(=O)OCc2ccccc2)cc(C)c1OC(=O)c1c2ccccc2[n+](C)c2ccc3ccccc3c12 [ABAC, (4-Benzyloxycarbonyl-2,6-dimethyl)phenyl 5-methyl-benz[a]acridinium-12-carboxylate methosulfate, reference compound] | 3% | 20% | 52% | 73% | 89% | 100%
6 | ≈ 508 nm | 508 nm | 470-660 nm | – | CCOc1ccc2c(C(=O)Oc3c(C)cc(C(=O)OCc4ccccc4)cc3C)c3cc4ccccc4cc3[n+](C)c2c1 [3-EtO-LEAE-Bz, (4-Benzyloxycarbonyl-2,6-dimethyl)phenyl 3-Ethoxy-5-methyl-benz[b]acridinium-12-carboxylate Fluorosulfonate] | 45% | 78% | 85% | 93% | 95% | 100%

The remaining lines, values behind:

Row | Compound | emission spectrum peak [1] | Emission Max [1] | Range [1] | difference of the emission maxima ([1]; versus acridinium esters) | Percent signal released over different lengths of time ([2]; 0.5 s) | Percent signal released over different lengths of time ([2]; 1.0 s) | Percent signal released over different lengths of time ([2]; 2.0 s) | Percent signal released over different lengths of time ([2]; 4.0 s) | Percent signal released over different lengths of time ([2]; 6.0 s) | Percent signal released over different lengths of time ([2]; 10.0 s)
7 | (4-Benzyloxycarbonyl-2,6-diisopropyl)phenyl 10-Methyl-acridinium-9-carboxylate Fluorosulfonate [DIPAE-Bz, reference compound] | ≈ 428 nm | 426 nm | 405-520 nm | – | 14% | 64% | 89% | 97% | 98% | 100%
8 | COc1ccc2c(C(=O)Oc3c(C)cc(C(=O)OCc4ccccc4)cc3C)c3ccccc3[n+](C)c2c1 [3-MeO-DMAE-Bz, (4-Benzyloxycarbonyl-2,6-dimethyl)phenyl 3-Methoxy-10-methyl-acridinium-9-carboxylate Fluorosulfonate, reference compound] | ≈ 422 nm | 422 nm | 395-520 nm | – | 26% | 49% | 57% | 70% | 80% | 100%
9 | Cc1cc(C(=O)OCc2ccccc2)cc(C)c1OC(=O)c1c2ccccc2[n+](CCCS(=O)(=O)[O-])c2cc3ccccc3cc12 [NSP-LEAE-Bz, (4-Benzyloxycarbonyl-2,6-dimethyl)phenyl 5-(3-Sulfopropyl)-benz[b]acridinium-12-carboxylate] | ≈ 516 nm | 516 nm | 482-655 nm | – | 14% | 72% | 91% | 96% | 95% | 100%
10 | [2,6-Dimethyl-4-(2-methoxyiminoethyl)]phenyl 2-Methoxy-5-methyl-benz[b]acridinium-12-carboxylate Dichloride [2-MeO-LEAE-Imidate] | ≈ 550 nm | 550 nm | 500-710 nm | – | 6% | 23% | 40% | 59% | 76% | 100%
11 | COc1ccc2c(c1)c(C(=O)Oc1c(C)cc(C(=O)ON3C(=O)CCC3=O)cc1C)c1cc3ccccc3cc1[n+]2CCS(=O)(=O)[O-] [2-MeO-NSE-LEAE-NHS, (2,6-Dimethyl-4-N-succinimidyloxycarbonyl)phenyl 2-Methoxy-5-(2-sulfoethyl)-benz[b]acridinium-12-carboxylate] | ≈ 546 nm | 546 nm | 500-700 nm | – | 22% | 58% | 79% | 90% | 96% | 100%
12 | COc1ccc(N(C(=O)c2c3ccccc3[n+](C)c3cc4ccccc4cc23)S(=O)(=O)c2cccc(C(=O)OCc3ccccc3)c2)cc1 [LEAC-Bz, N-(4-Methoxyphenyl)-N-[3-(benzyloxycarbonyl)phenylsulfonyl] 5-Methyl-benz[b]acridinium-12-carboxamide Fluorosulfonate] | ≈ 520 nm | 520 nm | 485-670 nm | – | 73% | 82% | 93% | 98% | 102% | 100%

From patent EP0617288B1, “Long emission wavelength chemiluminescent compounds and their use in test assays” (Novartis AG, priority 1993, dated 1994)
